Test results from ChEMBL document CHEMBL1201862, “PubChem BioAssay data set” (2004).
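Test compounds were applied to cells in 96-well plates for 48 hours at 5 doses. GI50 marks 50% less growth.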 The source made the active and inactive calls. Rule as the data show it: active = GI50 up to about 1.1 µM and inactive = higher.

How the values were obtained:
Assay in all cases: DTP human tumour cell line panel, 48 h
786-0 = test system: 786-0
A498 = test system: A498
A549 = test system: A549
ACHN = test system: ACHN
BT-549 = test system: BT-549
CAKI-1 = test system: CAKI-1
CCRF-CEM = test system: CCRF-CEM
COLO 205 = test system: COLO 205
DU-145 = test system: DU-145
EKVX = test system: EKVX
HCC 2998 = test system: HCC 2998
HCT-116 = test system: HCT-116
HCT-15 = test system: HCT-15
HL-60 = test system: HL-60
HOP-62 = test system: HOP-62
HOP-92 = test system: HOP-92
HT-29 = test system: HT-29
Hs-578T = test system: Hs-578T
IGROV-1 = test system: IGROV-1
K562 = test system: K562
KM12 = test system: KM12
LOX IMVI = test system: LOX IMVI
M14 = test system: M14
MCF7 = test system: MCF7
MDA-MB-231 = test system: MDA-MB-231
MDA-MB-435 = test system: MDA-MB-435
MDA-N = test system: MDA-N
MOLT-4 = test system: MOLT-4
Malme-3M = test system: Malme-3M
NCI-H226 = test system: NCI-H226
NCI-H23 = test system: NCI-H23
NCI-H460 = test system: NCI-H460
NCI-H522 = test system: NCI-H522
NCI/ADR-RES = test system: NCI/ADR-RES
OVCAR-3 = test system: OVCAR-3
OVCAR-4 = test system: OVCAR-4
OVCAR-5 = test system: OVCAR-5
OVCAR-8 = test system: OVCAR-8
PC-3 = test system: PC-3
RPMI-8226 = test system: RPMI-8226
RXF 393 = test system: RXF 393
SF-268 = test system: SF-268
SF-295 = test system: SF-295
SF-539 = test system: SF-539
SK-MEL-28 = test system: SK-MEL-28
SK-MEL-2 = test system: SK-MEL-2
SK-MEL-5 = test system: SK-MEL-5
SK-OV-3 = test system: SK-OV-3
SN12C = test system: SN12C
SNB-19 = test system: SNB-19
SNB-75 = test system: SNB-75
SR = test system: SR
SW-620 = test system: SW-620
T47D = test system: T47D
TK-10 = test system: TK-10
U-251 = test system: U-251
UACC-257 = test system: UACC-257
UACC-62 = test system: UACC-62
UO-31 = test system: UO-31

For OC(CCN1CCN(CCOC(c2ccc(F)cc2)c2ccc(F)cc2)CC1)c1ccccc1 (stereo not drawn), the GI50 (786-0) was 12.9 µM (inactive), the GI50 (A498) was 5.06 µM (inactive) and the GI50 (A549) was 16.4 µM (inactive). The GI50 (ACHN) was 12.9 µM (inactive), the GI50 (BT-549) was 14.1 µM (inactive) and the GI50 (CAKI-1) was 16.8 µM (inactive). For the same molecule, the GI50 (CCRF-CEM) was 19 µM (inactive), the GI50 (COLO 205) was 4.09 µM (inactive) and the GI50 (DU-145) was 17.3 µM (inactive). For the same molecule, the GI50 (EKVX) was 12.9 µM (inactive), the GI50 (HCC 2998) was 3.52 µM (inactive) and the GI50 (HCT-116) was 13.4 µM (inactive). The GI50 (HCT-15) was 13.6 µM, the GI50 (HL-60) was 15.9 µM (inactive) and the GI50 (HOP-62) was 18 µM (inactive). The GI50 (HOP-92) was 10.3 µM (inactive), the GI50 (HT-29) was 8.65 µM (inactive) and the GI50 (Hs-578T) was 16 µM (inactive). For the same molecule, the GI50 (IGROV-1) was 13.6 µM (inactive), the GI50 (K562) was 4.56 µM (inactive) and the GI50 (KM12) was 18.5 µM (inactive). For the same molecule, the GI50 (LOX IMVI) was 14.6 µM (inactive), the GI50 (M14) was 14.7 µM (inactive) and the GI50 (MCF7) was 16.6 µM (inactive). For the same molecule, the GI50 (MDA-MB-231) was 14.6 µM (inactive), the GI50 (MDA-MB-435) was 17.8 µM (inactive) and the GI50 (MDA-N) was 15.1 µM (inactive). For the same molecule, the GI50 (MOLT-4) was 12.1 µM (inactive), the GI50 (Malme-3M) was 13.4 µM (inactive) and the GI50 (NCI-H226) was 15 µM (inactive). For the same molecule, the GI50 (NCI-H23) was 16.6 µM (inactive), the GI50 (NCI-H460) was 16.7 µM (inactive) and the GI50 (NCI-H522) was 14.4 µM (inactive). The GI50 (NCI/ADR-RES) was 13.3 µM (inactive), the GI50 (OVCAR-3) was 15.3 µM (inactive) and the GI50 (OVCAR-4) was 16.1 µM (inactive). The GI50 (OVCAR-5) was 14.5 µM (inactive), the GI50 (OVCAR-8) was 12.9 µM (inactive) and the GI50 (PC-3) was 13.6 µM (inactive). The GI50 (RPMI-8226) was 15.7 µM (inactive), the GI50 (RXF 393) was 11.1 µM (inactive) and the GI50 (SF-268) was 16.9 µM (inactive). For the same molecule, the GI50 (SF-295) was 18.3 µM (inactive), the GI50 (SF-539) was 11.1 µM (inactive) and the GI50 (SK-MEL-28) was 17.5 µM (inactive). For the same molecule, the GI50 (SK-MEL-2) was 15.3 µM (inactive), the GI50 (SK-MEL-5) was 7.6 µM (inactive) and the GI50 (SK-OV-3) was 16.3 µM (inactive). For the same molecule, the GI50 (SN12C) was 15.2 µM (inactive), the GI50 (SNB-19) was 16.9 µM (inactive) and the GI50 (SNB-75) was 13.5 µM (inactive). For the same molecule, the GI50 (SR) was 5.48 µM (inactive), the GI50 (SW-620) was 22.8 µM (inactive) and the GI50 (T47D) was 12.3 µM (inactive). The GI50 (TK-10) was 15 µM (inactive), the GI50 (U-251) was 14.6 µM (inactive) and the GI50 (UACC-257) was 16.2 µM (inactive). The GI50 (UACC-62) was 14.5 µM (inactive) and the GI50 (UO-31) was 3.37 µM (inactive).

For C=CC(C1=CC(=O)C(OC)=CC1=O)c1ccccc1 (stereo not drawn) [4-METHOXYDALBERGIONE], the GI50 (786-0) was 14.1 µM (inactive), the GI50 (A498) was > 51.2 µM (inactive) and the GI50 (A549) was 25.4 µM (inactive). For the same molecule, the GI50 (ACHN) was 14.3 µM (inactive), the GI50 (BT-549) was 15.5 µM (inactive) and the GI50 (CAKI-1) was 17.2 µM (inactive). The GI50 (CCRF-CEM) was 1.91 µM (inactive), the GI50 (COLO 205) was 18.9 µM (inactive) and the GI50 (DU-145) was 16.5 µM (inactive). For the same molecule, the GI50 (EKVX) was 16.1 µM (inactive), the GI50 (HCC 2998) was 16.7 µM (inactive) and the GI50 (HCT-116) was 8.81 µM (inactive). For the same molecule, the GI50 (HCT-15) was 14.3 µM, the GI50 (HL-60) was 2.38 µM (inactive) and the GI50 (HOP-62) was 16.6 µM (inactive). For the same molecule, the GI50 (HOP-92) was 4.98 µM (inactive), the GI50 (HT-29) was 19.3 µM (inactive) and the GI50 (Hs-578T) was 17.8 µM (inactive). For the same molecule, the GI50 (IGROV-1) was 16.4 µM (inactive), the GI50 (K562) was 3.33 µM (inactive) and the GI50 (KM12) was 15.7 µM (inactive). The GI50 (LOX IMVI) was 16.2 µM (inactive), the GI50 (M14) was 17.9 µM (inactive) and the GI50 (MCF7) was 7.48 µM (inactive). The GI50 (MDA-MB-231) was 6.97 µM (inactive), the GI50 (MDA-MB-435) was 13.8 µM (inactive) and the GI50 (MDA-N) was 13.8 µM (inactive). For the same molecule, the GI50 (MOLT-4) was 2.16 µM (inactive), the GI50 (Malme-3M) was 14.5 µM (inactive) and the GI50 (NCI-H226) was 17.1 µM (inactive). For the same molecule, the GI50 (NCI-H23) was 16.1 µM (inactive), the GI50 (NCI-H460) was 17.1 µM (inactive) and the GI50 (NCI-H522) was 6.93 µM (inactive). The GI50 (NCI/ADR-RES) was 18.5 µM (inactive), the GI50 (OVCAR-3) was 17.2 µM (inactive) and the GI50 (OVCAR-4) was 14.7 µM (inactive). The GI50 (OVCAR-5) was 20.3 µM (inactive), the GI50 (OVCAR-8) was 20.5 µM (inactive) and the GI50 (PC-3) was 9.53 µM (inactive). For the same molecule, the GI50 (RPMI-8226) was 9.64 µM (inactive), the GI50 (RXF 393) was 15.6 µM (inactive) and the GI50 (SF-268) was 16.3 µM (inactive). The GI50 (SF-295) was 12.2 µM (inactive), the GI50 (SF-539) was 14.2 µM (inactive) and the GI50 (SK-MEL-28) was 15.5 µM (inactive). The GI50 (SK-MEL-2) was 12.6 µM (inactive), the GI50 (SK-MEL-5) was 16.3 µM (inactive) and the GI50 (SK-OV-3) was 17.3 µM (inactive). For the same molecule, the GI50 (SN12C) was 14.3 µM (inactive), the GI50 (SNB-19) was 15.8 µM (inactive) and the GI50 (SNB-75) was 18.1 µM (inactive). For the same molecule, the GI50 (SR) was 3.86 µM (inactive), the GI50 (SW-620) was 19.5 µM (inactive) and the GI50 (T47D) was 2.65 µM (inactive). The GI50 (TK-10) was 18.1 µM (inactive), the GI50 (U-251) was 15.6 µM (inactive) and the GI50 (UACC-257) was 19.2 µM (inactive). The GI50 (UACC-62) was 14.6 µM (inactive) and the GI50 (UO-31) was 15.9 µM (inactive).
